Measurements: article PMC7822029, “Nanoparticles Based on Quaternary Ammonium Chitosan-methyl-β-cyclodextrin Conjugate for the Neuropeptide Dalargin Delivery to the Central Nervous System: An In Vitro Study” (Pharmaceutics, 2020)
Non-standard residues stand in square brackets, D forms with d. Residues, ends and D or L forms follow the SMILES beside them.

Assays:
pancreatin (PAC) = assay: Enzymatic degradation kinetics with pancreatin; assay type: in vitro ADME; conditions: PAC 0.18 mg/mL mixed, final DAL 0.50 mg/mL, 0.4 M PB, 37 ℃, HPLC
Experimental: (§1) Stock 1 mg/mL solutions of DAL-NP or free DAL in filtered 0.4 M PB were used for the enzymatic digestion tests. The solutions were mixed with 0.36 mg/mL CHT or 0.18 mg/mL PAC to obtain solutions with a final DAL concentration of 0.50 mg/mL. The DAL-NP and free DAL samples were subjected to digestion in the presence of CHT or PAC at 37 ℃ in a shaker water bath (80 rpm). At pre-established intervals, samples were withdrawn, appropriately diluted with the mobile phase (4 ℃), and analyzed in triplicate for DAL by HPLC, as described previously. The analysis was repeated in triplicate.

α-chymotrypsin (CHT) = molecular target: T1, α-chymotrypsin (CHT) (Bos taurus, UniProt P00766); assay: Enzymatic degradation kinetics with α-chymotrypsin; assay type: in vitro ADME; conditions: CHT 0.36 mg/mL mixed, final DAL 0.50 mg/mL, 0.4 M PB, 37 ℃, 80 rpm, HPLC, mean ± SD of three independent experiments
T1 construct: purchased Merk (Merck/Sigma-Aldrich, St. Louis, MO, USA)
Experimental: as §1

Caco-2 monolayer = assay: Permeation across Caco-2 monolayer (Transwell); assay type: in vitro ADME; conditions: Caco-2 monolayer 24 days, A-B, apical DAL 150 µg/mL, up to 3 h, HPLC, NP as FITC-labeled DAL-NP
Experimental: The permeation studies were performed as described previously. Briefly, a Caco-2 monolayer was obtained by cell seeding (10^5 cells per well) on Transwell 12-well plates (pore size […], area 1.12 cm^2; Sigma-Aldrich, Saint Louis, MO, USA). Thereafter, 0.5 and 1.5 mL of culture medium were added to apical and basolateral compartments of the inserts, respectively; the culture medium was replaced every 2 days for 24 days. The transepithelial electrical resistance (TEER, Ω cm^2) measurement during the permeatstudies was carried out using a voltmeter with rod electrodes (Voltmeter Millicells-ERS, Millipore, Molsheim, France). The TEER values for the Caco-2 cell monolayer grown on the Transwell filter were ion taken at time 0, every hour for 3 h, and at 24 h.
Both the NP vehicle and the DAL were followed in the mucosal and basolateral phases. […] The withdrawn samples were kept in ice and analyzed by HPLC. The evaluation of DAL contained in NP-FITC by HPLC implied subtracting the contribution of the fluorescein-labeled polymer from the peptide peak area. Therefore, with each sample to be analyzed, a specific fluorescence intensity was recorded by a spectrofluorometer from which the fluorescent polymer concentration to be injected in the HPLC apparatus could be extrapolated. […]

[1] = Cytotoxicity by WST-1 assay, Caco-2; assay type: cell-based; conditions: human, WST-1, DAL 17–150 µg/mL, HBSS pH 6.8, three independent experiments, read-out: cell vitality, Caco-2, over the whole concentration range
Experimental: To study the cytotoxicity of the DAL/N^+-Ch-CD complex, we mixed 400 µL of polymer solution (3.175 mg/mL) and 380 µL of 1 mg/mL aqueous DAL, and the mix was lyophilized under the conditions described above. The DAL-NP were lyophilized and the lyophilized product was re-suspended in 250 µL of 0.22 µm filtered water. An aliquot of dispersion (200 µL) was withdrawn and added to 20 µL of Hank’s buffer solution 10× (HBSS 37 ℃, pH 6.8), and the mix was made to 2 mL with HBSS 1X as to have a DAL content of […]. The Caco-2 cells were subjected to DAL concentrations in the 17–150 µg/mL range, while the bEnd.3 cells were brought into contact with DAL concentrations in the 17–100 µg/mL range; more specifically, DAL was free in solution, contained in the DAL/N^+-rCh-CD (1:1) complex, or encapsulated in NP. The cytotoxicity of the compounds under study was evaluated by the WST-1 assay. Caco-2 and bEnd.3 cells were seeded in each well of 96-well plates at a seeding density of 2 × 10^4 cells per well, and left to proliferate for 24 h at 37 ℃ in 5% CO2. The culture medium was then removed and replaced with samples of DAL, DAL/N^+-Ch-CD complex, and DAL-NP, as previously described. Afterwards, formazan dye absorbance was quantified at 450 nm with the reference wavelength of 655 by using an Enspire 230 (Perkin-Elmer, Waltham, MA, USA) multilabel reader.

bEnd.3 monolayer = assay: Permeation across bEnd.3 monolayer (Transwell, BBB model); assay type: in vitro ADME, murine
From the text: The medium was changed every 2 days.

Experimental for bEnd.3 monolayers: The bEnd.3 cells, at a concentration of 5 × 10^4 cells per well, were seeded on 12-well Transwell plates with polyester filters with 0.4 µm membrane pores and incubated 10 days at 37 ℃ in a 5% CO2 atmosphere. One and a half milliliters of full medium was added to the basal chamber, while a volume of 0.5 mL, including the cells, was added to the apical chamber. The medium was changed every 2 days. After 6 days culture, the medium of the basolateral chamber was replaced by serum-free medium and the cells were cultured for 4 more days before the permeation experiment. To evaluate the confluence of the cell monolayer, and during the permeation studies, we measured the TEER at time 0 and at each hour for 3 h, and then at 24 h, as previously described. […] At 1 h intervals up to 3 h, the runs were interrupted and 500 µL was collected from the apical chamber and 1.5 mL from the basolateral chamber. Permeation of DAL and FITC-labeled vehicle into the basolateral chamber as well as DAL and FITC-labeled vehicle concentrations in the apical chamber were measured as described above.

CC(C)C[C@H](NC(=O)[C@H](Cc1ccccc1)NC(=O)CNC(=O)[C@@H](C)NC(=O)[C@@H](N)Cc1ccc(O)cc1)C(=O)N[C@@H](CCCNC(=N)N)C(=O)O [DAL, (D-Ala2)-Leu Enkephalin-Arg] (H-Y[dA]GFLR-OH)
reduction of initial DAL content 2 min after adding PAC (pancreatin (PAC); 80 rpm, 2 min, three independent experiments): 85 ± 1.39%
DAL present after 5 min with PAC (pancreatin (PAC); 5 min): no peptide was present
reduction of substrate (DAL) after 5 min with CHT (α-chymotrypsin (CHT)): 90 ± 0.41%
DAL presence in basolateral chamber, Caco-2 (Caco-2 monolayer): could never be evidenced
viability [1]: > 70%
TEER of bEnd.3 monolayer during permeation experiment (bEnd.3 monolayer; 100% corresponds to 180 Ω cm^2, initial apical DAL 25 µg/mL, 3 h): 100%
DAL presence in basolateral chamber, bEnd.3 (bEnd.3 monolayer; bEnd.3 monolayer 10 days, Transwell, A-B, apical DAL 25 µg/mL, up to 3 h, HPLC, NP as FITC-labeled DAL-NP): below the analytical limit

O=C1OC2(c3ccc(O)cc3Oc3cc(O)ccc32)c2ccccc21 [NaF, Sodium fluorescein]
Papp, NaF 50 μg/mL (bEnd.3 monolayers): 0.51 10-6 cm/sec
Papp, NaF 100 μg/mL (bEnd.3 monolayers): 0.52 10-6 cm/sec
